In patent US5460697A, “Method of pulping wood chips with a fungi using sulfite salt-treated wood chips” (priority 1994, dated 1995):
Where two headings read alike, the source gives them in different places.

How the values were obtained:
[1] = system: indigenous microorganisms; test: Effect of sulfite salts on indigenous microorganisms of unsterilized wood chips (plating); type: cell-based, indigenous microorganisms of unsterilized aspen wood chips; settings: for first test: whether the salt inhibits growth of indigenous microorganisms: pass / not pass; for inhibition at 600 µg/mL / inhibition at 1200 µg/mL: read-out: Inhibition Relative to control; for inhibition of growth of indigenous microorganisms (in words): unsterilized wood chips, overall statement
Experimental: Aspen wood chips (50 g O.D. basis) were soaked in 500 ml of water containing either 0 mg, 781 mg or 1562 mg sodium bisulfite for about 1 hour at room temperature. After soaking, water was drained from the chips.
During the 1 hour soaking the chips soaked up about 31 ml of water. Therefore, the final moisture content of wood was about 61% (wet weight basis) and the final concentration of each chemical on water basis was about 0 μg/ml, 600 μg/ml and 1200 μg/ml.
Three chips were pulled randomly from each flask and plated on potato dextrose agar and tryptic soy agar plates. These plates were incubated at 27° C. for 24 or 27 h and the contaminants were visually observed.
A panel of other sulfur-containing chemicals were analyzed for their ability to inhibit the growth of indigenous microorganisms on unsterilized wood chips in the manner described above. Table 2 describes the various concentrations of these chemicals and the percent inhibition relative to control plates observed.

[2] = system: indigenous microorganisms; settings: Lamar et al. 1990; cited from earlier work

Row | Compound | first test: whether the salt inhibits growth of indigenous microorganisms [1] | Inhibition Relative to control ([1]; 600 μg/ml) [%] | Inhibition Relative to control ([1]; 1200 μg/ml) [%] | also measured
1 | O=S([O-])S(=O)[O-].[Na+].[Na+] [Sodium Hydrosulfite] | passed the first test | – | – | inhibition at 600 µg/mL [1]: 70%; inhibition at 1200 µg/mL [1]: 100%; inhibition of growth of indigenous microorganisms (in words) [1]: successfully inhibited the growth of microorganisms
2 | CBr [methyl bromide] | – | – | – | inhibition of indigenous microorganisms (in words) [2]: inhibit a number of indigenous microorganisms
3 | O=S(=O)([O-])[O-].[Na+].[Na+] [Sodium Sulfate] | did not pass the test | 0 | 0 | –
4 | O=S(O)S(=O)(=O)O [Sodium meta-Bisulfite] | passed the first test | – | – | inhibition at 600 µg/mL ([1]; 600 μg/ml): 100%; inhibition at 1200 µg/mL ([1]; 1200 μg/ml): 100%; inhibition of growth of indigenous microorganisms (in words) [1]: successfully inhibited the growth of microorganisms
5 | O=S([O-])O.[K+] [potassium bisulfite] | passed the first test | – | – | –
6 | O=S([O-])[O-].[Na+].[Na+] [Sodium Sulfite] | did not pass the test | 0 | 0 | –
7 | O=S(=O)(O)SSS(=O)(=O)O [Sodium Tetrathionate] | – | – | – | inhibition at 600 µg/mL [1]: 0%; inhibition at 1200 µg/mL [1]: 0%
8 | O=S([O-])([O-])=S.[Na+].[Na+] [Sodium Thiosulfate] | – | 0 | 0 | –
